The numbers were not newly measured in patent US7662571B2, “Mitochondrial markers of ischemia” (Nourheart Inc., priority 2005, dated 2010), which cites them from elsewhere.

No end group written: not given here.

One data set has as its target T1, FPR-like 2 (FPRL2) (Homo sapiens, UniProt P25089).
T1 sequence (P25089 1-353): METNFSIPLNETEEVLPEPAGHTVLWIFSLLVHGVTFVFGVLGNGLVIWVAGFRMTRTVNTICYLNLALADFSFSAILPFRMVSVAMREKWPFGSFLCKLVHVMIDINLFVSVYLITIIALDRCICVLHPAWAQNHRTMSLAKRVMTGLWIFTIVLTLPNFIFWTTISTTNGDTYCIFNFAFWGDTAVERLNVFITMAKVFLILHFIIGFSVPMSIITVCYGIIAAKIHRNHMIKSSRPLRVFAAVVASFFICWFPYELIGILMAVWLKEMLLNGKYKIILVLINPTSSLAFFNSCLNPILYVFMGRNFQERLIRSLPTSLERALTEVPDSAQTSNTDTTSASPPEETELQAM
As to conditions: FPRL2, low-affinity receptor.

Data set [1] has as its target T2, FMLP receptor (68-kDa protein) (Homo sapiens, UniProt P21462).
T2 sequence (P21462 1-350): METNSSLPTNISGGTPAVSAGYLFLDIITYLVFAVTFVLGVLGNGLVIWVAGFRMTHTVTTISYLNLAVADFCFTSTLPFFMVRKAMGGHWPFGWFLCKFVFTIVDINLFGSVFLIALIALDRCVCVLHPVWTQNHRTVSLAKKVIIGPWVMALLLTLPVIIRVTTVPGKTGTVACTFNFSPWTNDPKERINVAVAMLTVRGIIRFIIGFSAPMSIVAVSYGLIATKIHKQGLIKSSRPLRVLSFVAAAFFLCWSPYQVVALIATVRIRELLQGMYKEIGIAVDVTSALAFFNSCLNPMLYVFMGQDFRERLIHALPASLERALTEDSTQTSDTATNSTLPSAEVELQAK

Regarding formyl-Met-Leu-Phe [fMLP], the “concentration needed for receptor activation” value at FPR-like 2 (FPRL2) is reported as “only activated by high (micromolar) concentrations”. Consider “RKAMGGHWPFGWFLCKFl (FMLP receptor derived peptide) [synthetic 17-aa peptide]”, for which the “inhibition of ligand binding to the 68-kDa protein” value in data set [1] was “strongest inhibitor of ligand binding”. With “LVVYPWT [spinorphin, Leu-Val-Val-Tyr-Pro-Trp-Thr]”, the “chemotaxis of neutrophils caused by the low mwt chemoattractant” value in the data set with neutrophils is “inhibited”.
